From PMC9458111, “New 1,2,3-Triazole-Coumarin-Glycoside Hybrids and Their 1,2,4-Triazolyl Thioglycoside Analogs Targeting Mitochondria Apoptotic Pathway: Synthesis, Anticancer Activity and Docking Simulation” (Molecules, 2022)

Columns and labels:
[1] = tested on: human osteosarcoma (HOS cell lines); experiment: MTT cytotoxicity assay, HOS; assay type: cell-based; settings: 48 h
Procedure: (§1) The synthesized compounds were studied for their cytotoxic activity against several human cancer cell lines, namely human osteosarcoma (HOS cell lines), human breast adenocarcinoma (MDA-MB-231 cell lines), human breast cancer (MCF-7 cell lines), human colorectal adenocarcinoma (Caco-2 cell lines) and human colon cell line (HCT-116 cell lines) using MTT assay at 100 µM, and the results were outlined as shown in Table 1.
(§2) Human osteosarcoma (HOS cell line), human breast adenocarcinoma (MDA-MB-231cell lines), human breast cancer (MCF-7 cell lines), human colorectal adenocarcinoma (Caco2 cell lines), human colon cell line (HCT-116 cell lines), normal human cell lines (BJ-1), and “a telomerase immortalized normal foreskin fibroblast cell line” were obtained from Karolinska Center, Department of Oncology and Pathology, Karolinska Institute and Hospital, Stockholm, Sweden.
(§3) Following culturing for 10 days, the cells were seeded at concentration of 10 × 10^3 cells per well in case of MCF-7 & MDA, 20 × 10^3 cells/well in a fresh complete growth medium in case of HCT-116, Caco2, & HOS and 40 × 10^3 cells/well in case of BJ-1 at 37 °C for 24 h in a water jacketed carbon dioxide incubator. After 48 h’ incubation, the medium was aspirated, and then 40 μl MTT salt (2.5 mg/mL) were added for a further 4 h; 200 μl 10% sodium dodecyl sulphate (SDS) in deionized water were added to each well and incubated overnight at 37 °C. The absorbance was measured at 595 nm with reference 690 nm. Doxorubicin was used as positive control, and 0.5% DMSO was used as negative control. IC50 values were calculated, using a probit analysis, and by utilizing the SPSS computer program (SPSS for Windows, statistical analysis software package/version 9/1989 SPSS Inc., Chicago, IL, USA).

[2] = tested on: human breast adenocarcinoma (MDA-MB-231 cell lines); experiment: MTT cytotoxicity assay, MDA-MB-231; assay type: cell-based; settings: MDA-MB-231, 48 h
Procedure: as §1, §2, §3

[3] = tested on: human breast cancer (MCF-7 cell lines); experiment: MTT cytotoxicity assay, MCF-7; assay type: cell-based
Procedure: as §1, §2, §3

[4] = tested on: human colorectal adenocarcinoma (Caco-2 cell lines); experiment: MTT cytotoxicity assay, Caco-2; assay type: cell-based; settings: Caco-2, 48 h
Procedure: as §1, §2, §3

VEGFR-2 = VEGFR-2 (Homo sapiens, UniProt P35968); experiment: VEGFR-2 inhibitory assay (ELISA); assay type: biochemical; settings: mean of three values; read-out: IC50 (Mean ± SEM), VEGFR-2
VEGFR-2, sequence (P35968 20-1356): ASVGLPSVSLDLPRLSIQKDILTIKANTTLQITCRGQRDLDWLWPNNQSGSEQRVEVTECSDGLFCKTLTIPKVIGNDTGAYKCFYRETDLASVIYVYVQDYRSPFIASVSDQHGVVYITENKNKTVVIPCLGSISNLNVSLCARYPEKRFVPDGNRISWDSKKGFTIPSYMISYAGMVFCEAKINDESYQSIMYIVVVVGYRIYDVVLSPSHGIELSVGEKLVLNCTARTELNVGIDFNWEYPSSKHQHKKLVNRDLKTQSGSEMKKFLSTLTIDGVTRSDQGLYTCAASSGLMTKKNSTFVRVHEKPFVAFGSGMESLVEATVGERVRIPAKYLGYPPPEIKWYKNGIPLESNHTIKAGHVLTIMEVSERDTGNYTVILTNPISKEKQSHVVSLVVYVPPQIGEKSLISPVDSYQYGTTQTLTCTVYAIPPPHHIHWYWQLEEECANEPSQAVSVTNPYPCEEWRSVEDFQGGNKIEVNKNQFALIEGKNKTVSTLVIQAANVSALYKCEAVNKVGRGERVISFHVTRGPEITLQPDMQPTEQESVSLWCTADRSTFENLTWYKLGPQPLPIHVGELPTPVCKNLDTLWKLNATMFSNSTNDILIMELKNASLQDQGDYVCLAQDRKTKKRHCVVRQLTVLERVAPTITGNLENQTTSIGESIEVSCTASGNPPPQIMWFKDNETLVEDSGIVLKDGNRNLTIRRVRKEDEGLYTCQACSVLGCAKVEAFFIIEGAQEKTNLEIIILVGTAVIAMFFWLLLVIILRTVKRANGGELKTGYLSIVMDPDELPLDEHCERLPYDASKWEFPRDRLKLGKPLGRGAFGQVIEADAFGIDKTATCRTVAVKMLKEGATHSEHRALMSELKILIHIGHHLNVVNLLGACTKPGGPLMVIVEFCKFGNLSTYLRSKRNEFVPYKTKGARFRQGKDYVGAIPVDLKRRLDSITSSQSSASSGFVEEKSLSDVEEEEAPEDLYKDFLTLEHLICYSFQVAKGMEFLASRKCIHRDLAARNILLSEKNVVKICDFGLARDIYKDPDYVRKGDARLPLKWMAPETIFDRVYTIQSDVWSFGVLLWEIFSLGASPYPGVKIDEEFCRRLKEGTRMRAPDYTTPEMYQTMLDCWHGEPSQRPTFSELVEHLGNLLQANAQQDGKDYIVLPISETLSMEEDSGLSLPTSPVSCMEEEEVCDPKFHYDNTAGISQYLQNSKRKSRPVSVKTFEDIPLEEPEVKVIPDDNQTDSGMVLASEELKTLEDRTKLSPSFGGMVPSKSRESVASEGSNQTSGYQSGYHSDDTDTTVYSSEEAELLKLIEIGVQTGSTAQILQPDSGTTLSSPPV
Procedure: The cells were harvested, and the homogenates were prepared in saline using a tight pestle homogenizer until complete cell disruption. The kit uses a double-antibody sandwich enzyme-linked immunosorbent assay (ELISA) to determine the level of human VEGFR-2 in samples. A monoclonal antibody for VEGFR-2 was pre-coated onto 96-well plates. The test samples are added to the wells, and a biotinylated detection polyclonal antibody from goat specific for VEGFR-2 was added subsequently followed by washing with PBS buffer. Avidin-Biotin-Peroxidase complex was added, and the unbound conjugates were washed away with PBS buffer. HRP substrate TMB was used to visualize HRP enzymatic reaction. TMB was catalyzed by HRP to produce a blue color product that changed into yellow after adding acidic stop solution. The density of yellow color is proportional to the human VEGFR-2 amount of the sample captured in the plate. The chroma of color and the concentration of the human VEGFR-2 of the samples were positively correlated, and the optical density was determined at 450 nm. The level of human VEGFR-2 in samples was calculated (pg/ml) as duplicate determinations from the standard curve. Percent inhibition was calculated in comparison to control untreated cells.

[5] = tested on: Bcl-2 protein in MCF-7 cells; experiment: Bcl-2 protein level in MCF-7 cells (ELISA); assay type: cell-based, human; settings: MCF-7, 19.6 µM (IC50), 24 h
Procedure: (§4) Referring to the cytotoxicity results, the 1,2,4-triazole-thioglycoside derivative 10 has a mitochondria-apoptotic effect on breast cancer cells through reduction of MTT by a mitochondrial enzyme. […] Along with that, such derivative elevated the release of cytochrome c into the cytosol in the treated MCF-7, in comparison with untreated one from 0.176 to 0.766 ng/ml due to disturbing mitochondrial outer membrane permeability (MOMP). In addition, the target 10 achieved better results than those afforded by from the standard 5-fluorouracil. Moreover, the level of caspase-7 was elevated in treated cells with the target 10 rather than that with 5-fluorouracil or the untreated cells as shown in Figure 4.
Bcl-2 (ng/mL) in the samples and standards were estimated as reported. A biotin-conjugated antibody was added followed by streptavidin-HRP. The reaction is then terminated by adding acid and absorbance was measured at 450 nm.
(§5) Figure 4 Levels of Bax, Bcl-2, Bax/Bcl-2 ratio, cytochrome c and caspase-7 protein in MCF-7 cells after treatment with compound 10 and the standard drug for 24 h compared with the untreated one, 5-flu: 5-fluorouracil as a reference drug.

[6] = tested on: cytochrome c in MCF-7 cells; experiment: Cytochrome c release in MCF-7 cells (ELISA); assay type: cell-based, human; settings: MCF-7, 19.6 µM (IC50), 24 h; untreated 0.176
Procedure: as §4
Cytochrome c specific antibodies have been precoated onto 96-well plates. Cytochrome c were analyzed by enzyme-linked immunosorbent assays (ELISAs) using commercial kits (ab119521; Abcam, Cambridge, MA, USA). The optimal dilutions were determined, and ELISAs were performed according to the manufacturer’s instructions.
as §5

MCF-7 cells [7] = experiment: Apoptosis detection, Annexin V-FITC flow cytometry; assay type: cell-based, human
Procedure: (§6) Cell cycle analysis and apoptosis detection were carried out by flow cytometry. MCF-7 cells were seeded at 1–5 × 10^4 and incubated at 37 °C, 5% CO2 overnight. After treatment with the tested compound 10, for 24 h, cell pellets were collected and centrifuged (300× g, 5 min). For cell cycle analysis, cell pellets were fixed with 70% ethanol on ice for 15 min and collected again [54]. The collected pellets were incubated with propidium iodide (PI) staining solution at room temperature for 1 h. Apoptosis detection was performed by Annexin V-FITC apoptosis detection kit (BioVision, Inc, Milpitas, CA, USA) following the manufacturer’s protocol. The samples were analyzed using FACS Calibur flow cytometer (BD Biosciences, San Jose, CA).
(§7) Figure 5 Cell cycle analysis and the effect of the target 10 on the percentage of V-FITC-positive annexin staining in MCF-7 cells in comparison with the control. TEXT PRINTED IN THE PICTURE: (C) cpd10: MCF7: 6.07%; MCF7: 18.11%; MCF7: 25.44% | (D) cpd10: MCF7: %DIP G1 41.96%; MCF7: %DIP G2/M 6.61%; MCF7: %DIP S 51.43%

MCF-7 cells [8] = experiment: Cell cycle analysis, PI flow cytometry; assay type: cell-based, human
Procedure: as §6, §7

CCn1c(COc2ccc3c(-c4ccccc4)cc(=O)oc3c2)nnc1SC1OCC(O)C(O)C1O [Compound 10, 4-Phenyl-7-((4-ethyl-5-(1-(β-D-xylopyranosyl)thio)-4H-1,2,4-triazol-3-yl)meth-oxy)-2H-chromen-2-one]
cytotoxicity at 100 µM [1]: 5.3 ± 0.2%
cytotoxicity at 100 µM [2]: 20.6 ± 0.5%
cytotoxicity at 100 µM ([3]; MCF7, 48 h): 66.3 ± 1%
IC50 ([3]; MCF7, MTT, 0.78–100 µM, ± SD): 19.6 ± 0.7 µM
cytotoxicity at 100 µM [4]: 0.7 ± 0.003%
IC50 (VEGFR-2): 0.79 ± 0.14 µM
Downregulation of anti-apoptotic Bcl-2 protein versus untreated cells [5]: 5.3 folds
Cytochrome c released into the cytosol [6]: 0.766 ng/mL
Secondary late apoptosis (MCF-7 cells [7]; MCF-7, 19.6 µM (IC50), 24 h, untreated 0.18): 18.11%
Early apoptosis (MCF-7 cells [7]; MCF-7, 19.6 µM (IC50), 24 h, untreated 0.47): 25.44%
Annexin V-FITC staining, third percentage not named in the picture text (MCF-7 cells [7]; MCF-7, Figure 5C): 6.07%
Increase in the cell percentage at the S phase versus untreated (MCF-7 cells [8]; MCF-7, 19.6 µM (IC50), 24 h): 1.7 fold
Cell percentage at the S phase (MCF-7 cells [8]; MCF-7, 19.6 µM (IC50), 24 h, untreated 29.63%): 51.43%
%DIP G1 (MCF-7 cells [8]; MCF-7, Figure 5D): 41.96%
%DIP G2/M (MCF-7 cells [8]; MCF-7, Figure 5D): 6.61%
melting point: 178 to 179 °C
